Assay results reported in patent US11001590B2, “Pyrazolopyrimidine derivatives” (BAYER ANIMAL HEALTH GMBH, priority 2016, dated 2021).

Target: C. elegans Slo-1a (Caenorhabditis elegans, UniProt Q95V25)
Assay: In vitro assay 1: C. elegans Slo-1a, action at a recombinant C. elegans CHO cell line (membrane potential measurement)
Details: CHO cells expressing C. elegans Slo-1a; voltage sensitive dye, FLIPR Tetra; negative decadic logarithm of EC50

C. elegans Slo-1a, sequence (Q95V25 whole entry): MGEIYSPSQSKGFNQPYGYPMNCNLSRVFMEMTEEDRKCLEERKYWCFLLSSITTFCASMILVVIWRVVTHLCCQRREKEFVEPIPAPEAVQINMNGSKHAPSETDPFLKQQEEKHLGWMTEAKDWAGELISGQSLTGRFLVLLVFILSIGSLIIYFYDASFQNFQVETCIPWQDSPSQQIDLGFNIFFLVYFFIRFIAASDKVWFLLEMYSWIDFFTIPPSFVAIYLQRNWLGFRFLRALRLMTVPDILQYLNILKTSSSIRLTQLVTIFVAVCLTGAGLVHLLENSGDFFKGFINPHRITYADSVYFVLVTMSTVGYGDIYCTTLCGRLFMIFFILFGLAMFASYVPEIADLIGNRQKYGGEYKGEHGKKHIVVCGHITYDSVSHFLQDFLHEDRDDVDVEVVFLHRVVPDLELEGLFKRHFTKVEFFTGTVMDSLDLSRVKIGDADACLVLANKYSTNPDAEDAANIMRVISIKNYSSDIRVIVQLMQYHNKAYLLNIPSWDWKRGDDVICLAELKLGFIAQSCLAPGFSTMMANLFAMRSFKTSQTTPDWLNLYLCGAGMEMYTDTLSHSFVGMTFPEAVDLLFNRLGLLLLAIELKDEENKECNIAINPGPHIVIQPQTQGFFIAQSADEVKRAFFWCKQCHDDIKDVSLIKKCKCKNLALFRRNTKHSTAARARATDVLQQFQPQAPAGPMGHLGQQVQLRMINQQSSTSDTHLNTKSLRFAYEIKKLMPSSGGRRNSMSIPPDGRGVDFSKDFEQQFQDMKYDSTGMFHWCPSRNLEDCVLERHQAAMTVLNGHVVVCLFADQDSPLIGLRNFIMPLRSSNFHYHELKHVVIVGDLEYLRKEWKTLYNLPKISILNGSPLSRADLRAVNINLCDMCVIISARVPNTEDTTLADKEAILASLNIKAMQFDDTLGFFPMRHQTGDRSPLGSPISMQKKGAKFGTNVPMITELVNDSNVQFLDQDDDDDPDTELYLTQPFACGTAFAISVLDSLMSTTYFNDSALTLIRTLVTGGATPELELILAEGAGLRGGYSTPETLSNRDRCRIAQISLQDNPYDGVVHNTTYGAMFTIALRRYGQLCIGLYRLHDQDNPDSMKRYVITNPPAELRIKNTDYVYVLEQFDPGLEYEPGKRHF

SMILES	pE50
Cc1nn2c(N3CCOCC3)c(C(=O)N[C@H]3CCOc4ccccc43)cnc2c1-c1ccc(F)c(N(C)C)c1F [Example 543]	8.6
Cc1nn2c(N3CCOCC3)c(C(=O)N[C@H]3CCOc4ccccc43)cnc2c1-c1c(Cl)cccc1Cl [Example 544]	8.3
Cc1nn2c(N3CCOCC3)c(C(=O)N[C@H]3CCOc4ccccc43)cnc2c1-c1c(F)ccc(Cl)c1F [Example 545]	8.8
Cc1nn2c(N(C)C)c(C(=O)N[C@H]3CCOc4ccccc43)cnc2c1-c1cc(C(F)(F)F)ccc1F [Example 547]	8.9
Cc1nn2c(N(C)C)c(C(=O)N[C@H]3CCOc4ccccc43)cnc2c1-c1cccc(F)c1F [Example 549]	8.4
Cc1nn2c(N(C)C)c(C(=O)N[C@H]3CCOc4ccccc43)cnc2c1-c1ccc(F)c(N(C)C)c1F [Example 550]	8.7
COc1c(F)ccc(-c2c(C)nn3c(N(C)C)c(C(=O)N[C@H]4CCOc5ccccc54)cnc23)c1F [Example 551]	8.9
Cc1nn2c(N(C)C)c(C(=O)N[C@H]3CCOc4ccccc43)cnc2c1-c1cccc(Cl)c1F [Example 552]	8.7
Cc1ccccc1-c1c(C)nn2c(N(C)C)c(C(=O)N[C@H]3CCOc4ccccc43)cnc12 [Example 553]	8.2
Cc1nn2c(N(C)C)c(C(=O)N[C@H]3CCOc4ccccc43)cnc2c1-c1c(F)ccc(F)c1F [Example 554]	8.7
Cc1nn2c(N(C)C3CC3)c(C(=O)N[C@H]3CCOc4ccccc43)cnc2c1-c1cc(Cl)cc(Cl)c1 [Example 555]	7.6
Cc1nn2c(N(C)CCN3CCCC3=O)c(C(=O)N[C@H]3CCOc4ccccc43)cnc2c1-c1cc(Cl)cc(Cl)c1 [Example 560]	8.2
COCCOCCOCCN(C)c1c(C(=O)N[C@H]2CCOc3ccccc32)cnc2c(-c3cc(Cl)cc(Cl)c3)c(C)nn12 [Example 561]	8.2

Test system: not listed separately
Assay: log P by HPLC on reversed phase columns (Method L0; [a] acidic, [b] neutral range)
Details: HPLC on reversed phase columns, Method L0, [a] acidic range
Method: Calibration was done with straight-chain alkan-2-ones (with 3 to 16 carbon atoms) with known log P values (measurement of log P values using retention times with linear interpolation between successive alkanones). Lambda-max-values were determined using UV-spectra from 200 nm to 400 nm and the peak values of the chromatographic signals.

SMILES	logP (Method L0) [a]
Cc1c(C(=O)N[C@H]2CCCc3ccccc32)cnc2c(-c3cccc(Cl)c3)cnn12 [Example 44]	4.33
O=C(N[C@H]1CCc2ccccc21)c1cnc2c(-c3cc(Cl)cc(Cl)c3)cnn2c1 [Example 47]	4.74
CC(C)c1c(C(=O)N[C@H]2CCc3ccccc32)cnc2c(-c3ccc(Cl)cc3)c(C(F)(F)F)nn12 [Example 49]	5.48
O=C(N[C@H]1CCc2ccccc21)c1cnc2c(-c3cccc(Cl)c3)c(C(F)(F)F)nn2c1 [Example 50]	4.57
CC(C)c1c(C(=O)N[C@H]2CCCc3ccccc32)cnc2c(-c3cccc(Cl)c3)c(C(F)(F)F)nn12 [Example 51]	5.74
Cc1c(C(=O)N[C@H]2CCc3ccccc32)cnc2c(-c3cccc(Cl)c3)cnn12 [Example 52]	4.04
Cc1c(C(=O)N[C@H]2CCCc3ccccc32)cnc2c(-c3ccc(Cl)cc3)c(C(F)(F)F)nn12 [Example 53]	4.97
CC(C)c1c(C(=O)N[C@H]2CCCc3ccccc32)cnc2c(-c3ccc(Cl)cc3)c(C(F)(F)F)nn12 [Example 54]	5.76
Cc1c(C(=O)N[C@H]2CCc3ccccc32)cnc2c(-c3cccc(Cl)c3)c(C(F)(F)F)nn12 [Example 55]	4.68
Cc1c(C(=O)N[C@H]2CCc3ccccc32)cnc2c(-c3ccc(Cl)cc3)c(C(F)(F)F)nn12 [Example 57]	4.7
Cc1c(C(=O)N[C@H]2CCCc3ccccc32)cnc2c(-c3cccc(Cl)c3)c(Cl)nn12 [Example 58]	4.9
CC(C)c1c(C(=O)N[C@H]2CCCc3ccccc32)cnc2c(-c3cc(Cl)cc(Cl)c3)c(Cl)nn12 [Example 64]	6.69
Cc1c(C(=O)N[C@H]2CCc3ccccc32)cnc2c(-c3cc(Cl)cc(Cl)c3)cnn12 [Example 65]	4.84
Cc1c(C(=O)N[C@H]2CCc3ccccc32)cnc2c(-c3cc(Cl)cc(Cl)c3)c(Cl)nn12 [Example 66]	5.47
O=C(N[C@H]1CCc2ccccc21)c1cnc2c(-c3cc(Cl)cc(Cl)c3)c(Cl)nn2c1 [Example 67]	5.39
Cc1c(C(=O)N[C@H]2CCCc3ccccc32)cnc2c(-c3cc(Cl)cc(Cl)c3)c(Cl)nn12 [Example 68]	5.78
Cc1c(C(=O)N[C@H]2CCCc3ccccc32)cnc2c(-c3cccc(C(F)(F)F)c3)c(Cl)nn12 [Example 69]	5.03
Cc1c(C(=O)N[C@H]2CCc3ccccc32)cnc2c(-c3cccc(C(F)(F)F)c3)c(Cl)nn12 [Example 71]	4.73

SMILES	logP (Method L0) [a]
Cc1c(C(=O)N[C@H]2CCc3ccccc32)cnc2c(-c3cccc(Cl)c3)c(Cl)nn12 [Example 75]	4.6
CC(C)c1c(C(=O)N[C@H]2CCCc3ccccc32)cnc2c(-c3ccc(Cl)cc3)c(Cl)nn12 [Example 76]	5.79
O=C(N[C@H]1CCc2ccccc21)c1cnc2c(-c3ccc(Cl)cc3)c(C(F)(F)F)nn2c1 [Example 80]	4.61
Cc1c(C(=O)N[C@H]2CCCc3ccccc32)cnc2c(-c3cc(Cl)cc(Cl)c3)c(C(F)(F)F)nn12 [Example 82]	5.66
Cc1c(C(=O)N[C@H]2CCCc3ccccc32)cnc2c(-c3cccc(C(F)(F)F)c3)c(C(F)(F)F)nn12 [Example 83]	5.03
O=C(N[C@H]1CCc2ccccc21)c1cnc2c(-c3ccccc3Cl)c(C(F)(F)F)nn2c1 [Example 84]	4.15
Cc1c(C(=O)N[C@H]2CCc3ccccc32)cnc2c(-c3cccc(C(F)(F)F)c3)c(C(F)(F)F)nn12 [Example 85]	4.77
Cc1c(C(=O)N[C@H]2CCCc3ccccc32)cnc2c(-c3cccc(Cl)c3)c(C(F)(F)F)nn12 [Example 86]	4.94
O=C(N[C@H]1CCc2ccccc21)c1cnc2c(-c3cccc(C(F)(F)F)c3)c(C(F)(F)F)nn2c1 [Example 87]	4.66
Cc1c(C(=O)N[C@H]2CCCc3ccccc32)cnc2c(-c3ccccc3Cl)c(C(F)(F)F)nn12 [Example 90]	4.5
Cc1nn2c(C(C)C)c(C(=O)N[C@H]3CCOc4ccc(Cl)cc43)cnc2c1-c1ccc(Cl)cc1 [Example 106]	5.36
Cc1ccc2c(c1)[C@@H](NC(=O)c1cnc3c(-c4cccc(Cl)c4)c(C)nn3c1C(C)C)CCC2 [Example 109]	5.9
Cc1ccc2c(c1)[C@@H](NC(=O)c1cnc3c(-c4ccc(F)c(F)c4)c(C)nn3c1C(C)C)CCC2 [Example 112]	5.55
Cc1ccc2c(c1)[C@@H](NC(=O)c1cnc3c(-c4ccc(Cl)cc4)c(C)nn3c1C(C)C)CCC2 [Example 113]	5.88
Cc1nn2c(C(C)C)c(C(=O)N[C@H]3CCc4ccccc43)cnc2c1-c1ccc(Cl)c(C(=O)NC2CC2)c1 [Example 120]	3.78
CC(C)c1c(C(=O)N[C@H]2CCOc3ccccc32)cnc2c(-c3cnn(CC(F)(F)F)c3)c(C(F)(F)F)nn12 [Example 129]	4.21
CC(C)c1c(C(=O)N[C@H]2CCc3ccccc32)cnc2c(-c3ccc(F)nc3)c(C(F)(F)F)nn12 [Example 161]	4.35
CC(C)c1c(C(=O)N[C@H]2CCc3ccccc32)cnc2c(-c3ccc(F)cc3)c(C(F)(F)F)nn12 [Example 162]	4.95
